One data set deals with P. aeruginosa ATCC 27853. The data set is classed as cell-based, Pseudomonas aeruginosa. Conditions: ATCC 27853, 18 h. The source says:
(§1) To compare the antimicrobial activity among the peptides produced by the method of Example 1, the inventors of the present invention measured the minimal growth inhibitory concentration (MIC), which is minimum concentration of the peptide not allowing any […] of bacterial cells.
(§2) Specifically, the bacterial strains described in the following Table 2 were purchased and cultured to a mid-log phase in MHB (Mueller Hinton Broth) medium. Then, after dilution to bacterial cell concentration of 2×10^5 cells/50 μl, the cells were inoculated to a microtiter plate (NUNC, USA). Thereafter, LL37-1, LL37-2, LL37-3 or LL37-4 peptide which has been synthesized in Example 1 above was subjected to serial dilution, ½ times for each, in a 96-well plate. After adding the peptides in an amount of 50 μl to the cell plate, the cells were cultured for 18 hours at 37° C. By using a microtiter plate reader (Merck Elisa reader, Germany), the absorbance was measured at a wavelength of 600 nm to determine the MIC value of each bacterial strain. As a control group, LL37 as a mother peptide was used and subjected to the same process as above to determine the MIC value of each strain.

For data set [1], the system named is Acinetobacter baumannii KCTC 2508. Briefly: Low vacuum scanning electron microscopy (membrane-disrupting property). Conditions: peptide at MIC concentration, 30 minutes at 37° C. The data set is classed as cell-based. The procedure: To specifically determine the degree of antimicrobial activity of the synthesized peptides of the present invention, the influence of mother peptide LL37 and homologous peptides LL37-1, LL37-2, LL37-3 and LL37-4 on bacteria membrane, i.e., membrane-disrupting property, was determined by low vacuum scanning electron microscopy.
Specifically, Acinetobacter baumannii KCTC 2508 cells were cultured to a mid-log phase in MHB medium, and then diluted to a cell concentration of 2×10^7 cells/ml in physiological saline containing 10% MHB medium. […] After that, by using 2.5% glutaraldehyde, the bacterial cells were fixed for 30 minutes at room temperature and then for 12 hours at 4° C. After carrying out washing with buffer, the cells were fixed again with […] and dehydrated in stepwise manner by using ethanol. After the dehydration, platinum coating was carried out and the cells were observed by low vacuum scanning electron microscopy.

The nature of data set [2]: Cytotoxicity in normal cell line (MTT). The data set is classed as cell-based, human. Conditions: human. The protocol:
To determine the cytotoxicity of the peptides produced by the method of Example 1 in normal cell line, cytotoxicity was measured by using normal human keratinocyte cell line (HaCaT) and normal human fibroblast cell line (Hs27).
Specifically, normal human keratinocyte (HaCaT) cells and normal human fibroblast (Hs27) cells, which have been cultured in DMEM medium containing 10% FBS (fetal bovine serum), were aliquoted in a microtiter plate to have 1×10^4 cells per well. After culturing them for 24 hours, the cells were subjected to a treatment with LL37, LL37-1, LL37-2, LL37-3 or LL37-4 peptide, each at concentration of 0.5, 1, 2, 4, 8, 16 or 32 μM/well, followed by reaction for 24 hours in a 5% CO2 incubator. After culture, a reaction solution containing 5 mg/ml MTT (Thiazolyl Blue Tetrazolium Bromide) dissolved in phosphate buffered saline (PBS) was added in an amount of 10 μl to each well and the reaction was allowed to occur for 1 hour. After that, the supernatant was discarded, and, by dissolving MTT crystals that are formed by adding 200 μl DMSO (dimethyl sulfoxide), the absorbance at 570 nm was measured to determine the cell survival ability.

For data set [3], the system named is Acinetobacter baumannii KCTC 2508. The format is cell-based. The protocol: To determine the activity of the peptides, which have been prepared by the method of Example 1, in the presence of trypsin as one type of proteases, peptide stability against protease was determined by radial diffusion assay.
Specifically, among the bacterial strains that are described in the above Table 2, Acinetobacter baumannii KCTC 2508 cells were cultured to a mid-log phase in MHB medium, and, after diluting the cells to a cell concentration of 2×10^5 cells/10 ml, the cells were admixed with agarose which has been adjusted to final concentration of 1% and then evenly spread and solidified on a Petri dish. After that, the peptide adjusted to a concentration of 100 μg/ml was admixed with 10.7 nM trypsin and reacted for 10 minutes at 37° C. After applying a paper disk (diameter: 6 mm) on the solidified Petri dish, the peptide obtained after the reaction with trypsin was aliquoted thereto in an amount of 25 μl. After culture for 18 hours at 37° C., diameter of the clear zone around the paper disk was measured so that the level of antimicrobial activity for Acinetobacter baumannii KCTC 2508 was determined.

Another data set relates to S. typhimurium KCTC 1925. The format is cell-based, Salmonella typhimurium. Conditions: KCTC 1925, 18 h.
From the text: as §1, §2

Data set [4] has as its system L. monocytogenes KCTC 3710. The data set is classed as cell-based, Listeria monocytogenes. Conditions: KCTC 3710, 18 h.
From the text: as §1, §2

In brackets after ≈: the same amount, converted by molar mass. Where a SMILES comes first, the peptide text is derived from it.

By viability is commonly meant a read-out of living cells in per cent, often relative to untreated cells. `CC[C@H](C)[C@H](NC(=O)[C@H](CCCNC(=N)N)NC(=O)[C@H](CCC(N)=O)NC(=O)[C@@H](NC(=O)[C@@H](NC(=O)[C@H](CCCNC(=N)N)NC(=O)[C@H](CCCCN)NC(=O)[C@H](Cc1ccccc1)NC(=O)[C@H](CCCCN)NC(=O)[C@@H](N)CCCCN)[C@@H](C)CC)C(C)C)C(=O)N[C@@H](CCCCN)C(=O)N[C@@H](CCCCN)C(=O)N[C@@H](Cc1ccccc1)C(=O)N[C@@H](CC(C)C)C(=O)N[C@@H](CCCNC(=N)N)C(=O)N[C@@H](CC(N)=O)C(N)=O` [LL37-4, KKFKRIVQRIKKFLRN-NH2] (H-KKFKRIVQRIKKFLRN-NH2; N-terminus assumed) gave a Minimal inhibitory concentration in the data set with P. aeruginosa ATCC 27853 of 4 µM (≈ 8.41 µg/mL). For the same molecule, in data set [1], the “membrane disruption compared to LL37-1 and LL37-3 (scanning electron microscopy)” value was “disrupted more”; the “membrane-disrupting property (scanning electron microscopy)” value is “disruption of bacteria membrane”. Also, in data set [2] (HaCaT keratinocyte cells), the viability at 24 h, 0.5 µM was found to be 100%; the viability at 24 h, 1 µM worked out at 103%; the viability at 24 h, 2 µM came to 97%; the viability at 24 h, 4 µM stood at 96%. In data set [2] (HaCaT keratinocyte cells), the viability at 24 h, 8 µM turned out to be 92%; the viability at 24 h, 16 µM is 94%; the viability at 24 h, 32 µM was 101%. Besides, in data set [2] (Hs27 fibroblast cells), the viability at 24 h, 0.5 µM stood at 94%; the viability at 24 h, 1 µM was 94%; the viability at 24 h, 2 µM was 97%; the viability at 24 h, 4 µM was determined as 90%. Besides, in data set [2] (Hs27 fibroblast cells), the viability at 24 h, 8 µM is 93%; the viability at 24 h, 16 µM is 96%; the viability at 24 h, 32 µM stood at 93%. Further, the “decrease in clear zone compared to no treatment with trypsin” value in data set [3] (KCTC 2508, 18 h) worked out at 1.75 mm. Also, the “antimicrobial activity after reaction with trypsin” value in data set [3] (peptide 100 μg/ml with 10.7 nM trypsin, 10 minutes at 37° C., A. baumannii KCTC 2508) is listed as “showed the antimicrobial activity”. For the same molecule, the Minimal inhibitory concentration in the data set with S. typhimurium KCTC 1925 came to 4 µM (≈ 8.41 µg/mL). Moreover, the Minimal inhibitory concentration in data set [4] worked out at 16 µM (≈ 33.6 µg/mL).

Values taken from patent US11452758B2, “Antimicrobial peptide derived from LL37 peptide and uses thereof” (INDUSTRY-ACADEMIC COOPERATION FOUNDATION, CHOSUN UNIVERSITY, priority 2018, dated 2022).
